# From patent publication US20230270113A1, “FUNGICIDAL MIXTURES” (Adama Makhteshim Ltd., priority 2020, published 2023)
# Like-named read-outs stand apart in the source and are kept apart here.
# Columns and labels:
# Format in all cases: in vivo
# Botrytis cinerea = test: Example 11: greenhouse control of Botrytis cinerea in strawberry
# Phytophthora infestans = details: tomato
# Alternaria solani = test: Example 6b: greenhouse control of Alternaria solani in potato plants
# Plasmopara viticola = test: Example 7: greenhouse control of Plasmopara viticola in grape plants, folpet with partners
# [1] = test system: Zymoseptoria tritici Tri-R6 strain; details: with FOLPET vs use alone
# Venturia inaequalis = test: Example 2: greenhouse control of apple scab, phthalimides with cyprodinil and/or fluxapyroxad; details: Table 6; captan or folpet 1200, cyprodinil 300, fluxapyroxad 90 gAI/ha; one spray 1 day before inoculation
# Erysiphe necator = test: Example 9: greenhouse control of Erysiphe necator in grape plants; details: rate 75 gr (A.I.)/ha
# Method: • An experiment was conducted in controlled conditions under a greenhouse to evaluate the fungicidal activity of the mixture comprising (1) phthalimide fungicide (folpet, captan) and (2) demethylation inhibitor fungicide (difenoconazole) or a quinone outside inhibitors (azoxystrobin, pyraclostrobin), toward Erysiphe necator in grape plants, variety Barbera. In addition, the activity of phthalimide with two fungicides (A); demethylation inhibitor fungicide (difenoconazole) or a quinone outside inhibitors (azoxystrobin, pyraclostrobin and dehydrogenase inhibitor fungicide (fluxapyroxad) was also tested. • The experiment was conducted by applying compositions of fluxapyroxad, difenoconazole (Score® 10 WG), azoxystrobin (Ortiva®), pyraclostrobin (Cabrio® EC) and folpet (Folpan 80 WDG®) alone or together. The compositions were diluted with water. Water amount used was equivalent to 800 L/ha. Application was performed in an automatic spraying cabin equipped with 2 flatfan AI11003VS nozzles. • Treatments: • Folpet 1000 gr (A.I.)/ha • Fluxapyroxad 45 gr (A.I.)/ha • Difenoconazole 37.5 gr (A.I.)/ha • Difenoconazole 37.5 gr (A.I.)/ha+folpet 1000 gr (A.I.)/ha • Azoxystrobin 90 gr (A.I.)/ha • Azoxystrobin 90 gr (A.I.)/ha+folpet 1000 gr (A.I.)/ha • Pyraclostrobin 75 gr (A.I.)/ha • Pyraclostrobin 75 gr (A.I.)/ha+folpet 1000 gr (A.I.)/ha • Fluxapyroxad 45 gr (A.I.)/ha+Difenoconazole 37.5 gr (A.I.)/ha • Fluxapyroxad 45 gr (A.I.)/ha+Difenoconazole 37.5 gr (A.I.)/ha+folpet 1000 gr (A.I.)/ha • Azoxystrobin 90 gr (A.I.)/ha+Fluxapyroxad 45 gr (A.I.)/ha • Azoxystrobin 90 gr (A.I.)/ha+Fluxapyroxad 45 gr (A.I.)/ha+folpet 1000 gr (A.I.)/ha • Azoxystrobin 90 gr (A.I.)/ha+Difenoconazole 37.5 gr (A.I.)/ha • Azoxystrobin 90 gr (A.I.)/ha+Difenoconazole 37.5 gr (A.I.)/ha+folpet 1000 gr (A.I.)/ha • Pyraclostrobin 75 gr (A.I.)/ha+Fluxapyroxad 45 gr (A.I.)/ha • Pyraclostrobin 75 gr (A.I.)/ha+Fluxapyroxad 45 gr (A.I.)/ha+folpet 1000 gr (A.I.)/ha • Pyraclostrobin 75 gr (A.I.)/ha+Difenoconazole 37.5 gr (A.I.)/ha • Pyraclostrobin 75 gr (A.I.)/ha+Difenoconazole 37.5 gr (A.I.)/ha+folpet 1000 gr (A.I.)/ha • To test for fungicidal control of Erysiphe necator, the grape plants were sprayed with each of the above treatments. Each of the above treatments was applied from 4 to 10 times according to the disease development, applications occurring 7-14 days after the previous treatment. The treatments were composed of 4 replicates. • Evaluations were performed for the whole duration of the experiment. At each time the incidence and the severity of Erysiphe necator on plants parts was determined.
# Sphaerotheca fuliginea = test: Example 10: greenhouse control of Sphaerotheca fuliginea on melon plants; details: rate 100 gr (A.I.)/ha
compound,measurement,setting,value
Cc1cc(C2CC2)nc(Nc2ccccc2)n1 [CYPRODNIL],% control observed on leaves 21 DAYS after the application,Botrytis cinerea; rate 150 gr (A.I.)/ha,51.8%
O=[N+]([O-])c1cc(C(F)(F)F)c(Cl)c([N+](=O)[O-])c1Nc1ncc(C(F)(F)F)cc1Cl [FLUAZINAM],% control observed on leaves 21 DAYS after the application,Botrytis cinerea; rate 500 gr (A.I.)/ha,68.5%
CCCCCCCCc1c(CC)nc2ncnn2c1N [AMETOCRADIN],% control observed on leaves 14 DAYS after the application,Phytophthora infestans; rate 240 gr (A.I.)/ha,68.0%
same,% control observed on leaves 21 DAYS after the application,Alternaria solani; rate 240 gr (A.I.)/ha,62.0%
same,% control observed on leaves 21 DAYS after the application,Plasmopara viticola; rate 225.0 gr (A.I.)/ha,78.8%
CC1(C(=O)Nc2ccc(O)c(Cl)c2Cl)CCCCC1 [FENHEXAMID],% control observed on leaves 21 DAYS after the application,Botrytis cinerea; rate 500 gr (A.I.)/ha,74.2%
O=C(NCc1ncc(C(F)(F)F)cc1Cl)c1c(Cl)cccc1Cl [FLUOPICOLIDE],% control observed on leaves 21 DAYS after the application,Plasmopara viticola; rate 75.0 gr (A.I.)/ha,74.5%
"CC(C)CC(C)c1sccc1NC(=O)c1cn(C)nc1C(F)(F)F (centres unmarked) [PENTHIOPYRAD, penthiopyrad]","effect of FOLPET on the efficacy of the systemic product, treated and untreated areas",[1]; 21 and 28 days,a significant effect was observed only for the 28-day timing
"CCCN(CCOc1c(Cl)cc(Cl)cc1Cl)C(=O)n1ccnc1 [PROCHLORAZ, prochloraz]","effect of FOLPET on the efficacy of the systemic product, treated area",[1],numerically appreciated but not significantly improved
same,"effect of FOLPET on the efficacy of the systemic product, untreated area",[1],significant positive effect
"Cc1cc(C2CC2)nc(Nc2ccccc2)n1 [CYPRODINIL, cyprodinil]",% control observed on leaves 26 DAYS after the application,Venturia inaequalis,62.7%
CCNC(=O)NC(=O)/C(C#N)=N/OC [CYMOXANIL],% control observed on leaves 14 DAYS after the application,Phytophthora infestans; rate 150 gr (A.I.)/ha,68.5%
same,% control observed on leaves 21 DAYS after the application,Alternaria solani; rate 150 gr (A.I.)/ha,68.4%
same,% control observed on leaves 21 DAYS after the application,Plasmopara viticola; rate 126.0 gr (A.I.)/ha,73.6%
COC(=O)N(OC)c1ccccc1COc1ccn(-c2ccc(Cl)cc2)n1 [PYRACLOSTROBIN],% control observed on leaves 21 DAYS after the application,Erysiphe necator,70.7%
same,% control observed on leaves 21 DAYS after the application,Sphaerotheca fuliginea,60.1%
same,% control observed on leaves 21 DAYS after the application,Botrytis cinerea; rate 75 gr (A.I.)/ha,66.7%
